Measured values as given in PMC7830771 (Molecular cancer therapeutics, 2017).

Columns and labels:
[1] = target: ABCB1 (P-glycoprotein, MDR1) (Homo sapiens, UniProt P08183); test: vanadate-sensitive ATPase assay, crude membranes of High Five cells; format: biochemical
ABCC10 (MRP7) = target: T1, ABCC10 (MRP7) (Homo sapiens, UniProt Q5T3U5); test: [3H]-paclitaxel efflux, HEK293/ABCC10 versus HEK293/pcDNA3.[…] cells; format: cell-based; conditions: labelled compound; 0.1 μmol/L; 37°C
T1 sequence (Q5T3U5 1-1492): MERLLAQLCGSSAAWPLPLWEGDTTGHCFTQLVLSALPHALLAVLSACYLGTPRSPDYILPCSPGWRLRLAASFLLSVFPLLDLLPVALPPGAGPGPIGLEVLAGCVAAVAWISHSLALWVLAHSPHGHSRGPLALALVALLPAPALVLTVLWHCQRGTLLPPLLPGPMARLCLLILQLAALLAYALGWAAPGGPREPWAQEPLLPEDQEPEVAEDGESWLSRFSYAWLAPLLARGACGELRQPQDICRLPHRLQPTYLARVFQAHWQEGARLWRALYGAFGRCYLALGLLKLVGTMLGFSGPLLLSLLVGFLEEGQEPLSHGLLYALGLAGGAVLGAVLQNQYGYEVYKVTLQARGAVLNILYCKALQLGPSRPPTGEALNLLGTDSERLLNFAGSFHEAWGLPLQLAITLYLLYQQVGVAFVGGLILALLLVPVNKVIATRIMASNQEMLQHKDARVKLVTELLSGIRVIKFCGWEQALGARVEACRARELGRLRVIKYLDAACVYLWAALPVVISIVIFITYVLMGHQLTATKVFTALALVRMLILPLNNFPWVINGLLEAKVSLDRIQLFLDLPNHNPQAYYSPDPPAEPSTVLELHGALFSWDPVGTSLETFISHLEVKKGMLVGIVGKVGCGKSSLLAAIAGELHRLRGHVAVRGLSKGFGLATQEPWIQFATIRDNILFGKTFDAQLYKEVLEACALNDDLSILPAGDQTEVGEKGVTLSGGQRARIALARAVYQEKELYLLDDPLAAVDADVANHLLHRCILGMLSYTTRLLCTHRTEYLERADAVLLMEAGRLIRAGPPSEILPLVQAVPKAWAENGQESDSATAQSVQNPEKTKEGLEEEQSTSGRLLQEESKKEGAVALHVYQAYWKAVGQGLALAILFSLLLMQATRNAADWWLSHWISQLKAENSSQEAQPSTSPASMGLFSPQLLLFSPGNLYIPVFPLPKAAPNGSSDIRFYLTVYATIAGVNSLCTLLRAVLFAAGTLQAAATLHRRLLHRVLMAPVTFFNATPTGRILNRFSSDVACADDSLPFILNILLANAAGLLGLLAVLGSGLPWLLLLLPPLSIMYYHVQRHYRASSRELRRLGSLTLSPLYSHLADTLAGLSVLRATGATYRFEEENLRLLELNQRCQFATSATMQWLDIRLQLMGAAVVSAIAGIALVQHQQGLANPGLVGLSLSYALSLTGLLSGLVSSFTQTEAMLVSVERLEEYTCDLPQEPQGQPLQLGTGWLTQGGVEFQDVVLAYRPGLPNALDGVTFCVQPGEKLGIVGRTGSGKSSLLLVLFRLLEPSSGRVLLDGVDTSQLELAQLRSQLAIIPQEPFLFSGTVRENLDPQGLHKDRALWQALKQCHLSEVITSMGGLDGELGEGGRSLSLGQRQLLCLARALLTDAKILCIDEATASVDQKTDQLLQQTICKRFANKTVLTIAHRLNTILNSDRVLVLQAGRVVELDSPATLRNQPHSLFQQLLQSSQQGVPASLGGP

Chain of ABCB1 (P-glycoprotein, MDR1) (P08183 whole entry): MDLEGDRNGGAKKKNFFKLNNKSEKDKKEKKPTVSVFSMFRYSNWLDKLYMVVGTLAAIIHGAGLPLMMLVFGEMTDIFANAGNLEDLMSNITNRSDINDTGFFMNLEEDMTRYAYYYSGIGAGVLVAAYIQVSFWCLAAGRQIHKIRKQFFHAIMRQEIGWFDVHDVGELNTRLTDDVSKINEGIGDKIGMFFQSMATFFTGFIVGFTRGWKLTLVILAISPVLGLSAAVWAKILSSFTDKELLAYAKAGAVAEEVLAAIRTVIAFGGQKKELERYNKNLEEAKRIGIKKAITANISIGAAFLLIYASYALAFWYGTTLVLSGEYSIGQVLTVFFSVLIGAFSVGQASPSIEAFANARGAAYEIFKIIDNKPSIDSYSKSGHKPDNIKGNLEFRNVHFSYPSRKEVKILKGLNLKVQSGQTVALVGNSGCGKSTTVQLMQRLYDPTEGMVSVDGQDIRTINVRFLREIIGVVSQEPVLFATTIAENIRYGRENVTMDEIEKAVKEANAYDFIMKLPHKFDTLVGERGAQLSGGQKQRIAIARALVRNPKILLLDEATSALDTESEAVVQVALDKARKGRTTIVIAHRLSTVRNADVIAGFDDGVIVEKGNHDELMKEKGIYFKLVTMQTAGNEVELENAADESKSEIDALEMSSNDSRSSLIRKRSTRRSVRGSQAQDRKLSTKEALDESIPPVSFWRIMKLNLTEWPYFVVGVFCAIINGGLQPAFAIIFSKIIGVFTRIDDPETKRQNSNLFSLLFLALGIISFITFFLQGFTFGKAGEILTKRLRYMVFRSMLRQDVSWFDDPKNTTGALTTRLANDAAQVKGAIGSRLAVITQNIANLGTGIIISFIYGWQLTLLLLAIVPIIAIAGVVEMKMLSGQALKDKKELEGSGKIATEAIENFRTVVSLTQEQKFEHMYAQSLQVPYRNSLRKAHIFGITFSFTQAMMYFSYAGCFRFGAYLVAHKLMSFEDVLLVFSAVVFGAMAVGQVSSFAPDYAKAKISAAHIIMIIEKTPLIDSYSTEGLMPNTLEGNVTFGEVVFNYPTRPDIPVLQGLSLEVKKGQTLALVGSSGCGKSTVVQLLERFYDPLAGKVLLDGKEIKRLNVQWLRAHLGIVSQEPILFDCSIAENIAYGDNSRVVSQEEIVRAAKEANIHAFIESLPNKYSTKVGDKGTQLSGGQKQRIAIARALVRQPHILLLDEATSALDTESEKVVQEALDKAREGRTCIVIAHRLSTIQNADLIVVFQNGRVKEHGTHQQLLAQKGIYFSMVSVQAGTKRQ

Row | SMILES | EC50 [1] [µM] | [3H]-paclitaxel efflux, HEK293/ABCC10 versus HEK293/pcDNA3.1 cells (ABCC10 (MRP7))
1 | C=CC(=O)N1CCC[C@@H](n2nc(-c3ccc(Oc4ccccc4)cc3)c3c(N)ncnc32)C1 [ibrutinib] | 0.641 | –
2 | CC(=O)O[C@H]1C(=O)[C@@]2(C)[C@H]([C@H](OC(=O)c3ccccc3)[C@]3(O)C[C@H](OC(=O)[C@H](O)[C@@H](NC(=O)c4ccccc4)c4ccccc4)C(C)=C1C3(C)C)[C@]1(OC(C)=O)CO[C@@H]1C[C@@H]2O [paclitaxel] | – | KB-C2 and HEK293/ABCC10 cells efflux more [^3H]-paclitaxel out of the cells
